# Calls of active or inactive are those of the source. No cut-off for these calls is given here.
# Experiments:
# [1] = molecular target: Aurora kinase B (Homo sapiens) (UniProt Q96GD4); assay: Disruption of AURKB localization in human RPE-MYC transfected with GFP-H2B assessed as minimal effective concentration that induces mitotic arrest, polyploidy, cell death and cell number reduction by MIPS assay; format: cell-based
# [2] = molecular target: Aurora kinase B (Homo sapiens) (UniProt Q96GD4); assay: Disruption of AURKB localization in human RPE-MYC cells transfected with BCL2 assessed as loss of localization of MKLP1 at the spindle-midzone by immunofluorescence staining based analysis; format: cell-based
# [3] = molecular target: Aurora kinase B (Homo sapiens) (UniProt Q96GD4); assay: Disruption of AURKB localization in human RPE-MYC cells transfected with BCL2 assessed as loss of localization of microtubules at the spindle-midzone by immunofluorescence staining based analysis; format: cell-based
# [4] = molecular target: Aurora kinase B (Homo sapiens) (UniProt Q96GD4); assay: Disruption of AURKB localization in human RPE-MYC cells transfected with BCL2 assessed as loss of localization of PLK1 at the spindle-midzone by immunofluorescence staining based analysis; format: cell-based
# [5] = molecular target: Aurora kinase B (Homo sapiens) (UniProt Q96GD4); assay: Inhibition of Aurora kinase B in human RPE-MYC cells transfected with BCL2 assessed as inhibition of histone H3 phosphorylation at Ser10 residue at MEC for polyploidy measured after 6 hrs by immunofluorescence staining based analysis; format: cell-based
# [6] = molecular target: Aurora kinase B (Homo sapiens) (UniProt Q96GD4); assay: Disruption of AURKB localization in human RPE-MYC cells transfected with BCL2 assessed as mislocalization of AURKB at the spindle zone in anaphase cells by immunofluorescence staining based analysis; format: cell-based
# [7] = molecular target: T1, Aurora kinase A (Homo sapiens) (UniProt O14965); assay: Inhibition of Aurora kinase A (unknown origin)
# T1 sequence (whole entry): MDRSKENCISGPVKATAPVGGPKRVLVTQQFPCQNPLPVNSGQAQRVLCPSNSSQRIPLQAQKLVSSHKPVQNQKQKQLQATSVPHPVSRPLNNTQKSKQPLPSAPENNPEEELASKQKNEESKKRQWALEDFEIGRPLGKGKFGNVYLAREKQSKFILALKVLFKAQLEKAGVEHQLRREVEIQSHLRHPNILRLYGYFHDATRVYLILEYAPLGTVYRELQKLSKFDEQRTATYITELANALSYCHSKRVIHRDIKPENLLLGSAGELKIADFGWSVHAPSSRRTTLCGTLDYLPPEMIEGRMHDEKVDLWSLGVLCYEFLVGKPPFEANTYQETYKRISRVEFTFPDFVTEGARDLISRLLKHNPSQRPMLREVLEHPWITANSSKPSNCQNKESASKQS
# NCI-H23 [8] = assay: Antitumor activity against human NCI-H23 cells xenografted in BALB/c mouse assessed as reduction in cellular density in tumor at 50 mg/kg, po bid for 7 days by Hematoxylin and Eosin staining based analysis; format: functional, organism-based; conditions: time 7.0 day
# [9] = Cmax in BALB/c mouse at 50 mg/kg, po compound formulated in PEG300 and administered as single dose by LC-MS/MS analysis; format: ADME, organism-based; design: dose 50 mg/kg, route po; conditions: in vivo
# [10] = molecular target: Aurora kinase B (Homo sapiens) (UniProt Q96GD4); assay: Disruption of AURKB localization in human RPE-MYC cells transfected with BCL2 assessed as loss of localization of MKLP1 at the spindle-midzone at 40 nM measured after 6 hrs by immunofluorescence staining based analysis; format: cell-based
# [11] = molecular target: Aurora kinase B (Homo sapiens) (UniProt Q96GD4); assay: Disruption of AURKB localization in human RPE-MYC cells transfected with BCL2 assessed as localization of AURKB on kinetochore at 40 nM measured after 6 hrs by immunofluorescence staining based analysis; format: cell-based
# [12] = molecular target: Aurora kinase B (Homo sapiens) (UniProt Q96GD4); assay: Disruption of AURKB localization in human RPE-MYC cells transfected with BCL2 assessed as localization of PLK1 at spindle poles at 40 nM measured after 6 hrs by immunofluorescence staining based analysis; format: cell-based
# [13] = molecular target: Aurora kinase B (Homo sapiens) (UniProt Q96GD4); assay: Disruption of AURKB localization in human RPE-MYC cells transfected with BCL2 assessed as loss of localization of PLK1 at the spindle-midzone at 40 nM measured after 6 hrs by immunofluorescence staining based analysis; format: cell-based
# [14] = test system: Phosphatidylinositol 4,5-bisphosphate 3-kinase catalytic subunit alpha isoform (Homo sapiens), P42336 [E545K]; assay: Inhibition of PI3KCA E545K mutant (unknown origin)
# Sequence of Phosphatidylinositol 4,5-bisphosphate 3-kinase catalytic subunit alpha isoform (Homo sapiens), P42336 [E545K] (P42336 whole entry E545K, canonical isoform): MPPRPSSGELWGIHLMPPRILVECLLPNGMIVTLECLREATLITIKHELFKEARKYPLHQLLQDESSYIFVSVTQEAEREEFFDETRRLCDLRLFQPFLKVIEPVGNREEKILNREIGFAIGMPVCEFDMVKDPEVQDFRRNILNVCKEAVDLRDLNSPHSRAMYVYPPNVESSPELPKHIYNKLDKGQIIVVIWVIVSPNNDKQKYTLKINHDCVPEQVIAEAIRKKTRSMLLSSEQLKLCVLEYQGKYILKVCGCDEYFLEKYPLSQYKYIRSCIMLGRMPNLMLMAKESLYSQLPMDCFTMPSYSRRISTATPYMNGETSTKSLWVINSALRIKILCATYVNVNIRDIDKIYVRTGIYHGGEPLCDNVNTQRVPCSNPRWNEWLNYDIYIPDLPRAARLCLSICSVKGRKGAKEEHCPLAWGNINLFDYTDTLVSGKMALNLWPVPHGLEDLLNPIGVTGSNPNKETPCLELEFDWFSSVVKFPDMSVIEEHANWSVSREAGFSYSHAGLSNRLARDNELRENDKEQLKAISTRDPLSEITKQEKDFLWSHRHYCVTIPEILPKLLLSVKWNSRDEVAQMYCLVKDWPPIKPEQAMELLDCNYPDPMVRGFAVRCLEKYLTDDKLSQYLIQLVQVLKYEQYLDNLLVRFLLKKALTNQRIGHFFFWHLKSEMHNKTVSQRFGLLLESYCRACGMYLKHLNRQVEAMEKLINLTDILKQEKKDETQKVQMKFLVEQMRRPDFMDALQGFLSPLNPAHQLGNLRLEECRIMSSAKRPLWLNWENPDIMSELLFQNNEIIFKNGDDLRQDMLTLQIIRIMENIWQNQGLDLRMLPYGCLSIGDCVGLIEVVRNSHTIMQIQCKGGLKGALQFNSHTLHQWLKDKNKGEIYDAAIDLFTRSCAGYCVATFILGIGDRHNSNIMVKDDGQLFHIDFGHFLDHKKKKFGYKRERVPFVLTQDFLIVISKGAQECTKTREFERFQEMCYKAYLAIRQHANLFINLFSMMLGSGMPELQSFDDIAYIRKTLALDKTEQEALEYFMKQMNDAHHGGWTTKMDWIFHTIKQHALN
# NCI-H23 [15] = assay: Antitumor activity against human NCI-H23 cells xenografted in BALB/c mouse assessed as suppression of tumor growth at 50 mg/kg, po bid for 7 days; format: functional, organism-based; conditions: time 7.0 day
# [16] = molecular target: Aurora kinase B (Homo sapiens) (UniProt Q96GD4); assay: Disruption of AURKB localization in human RPE-MYC cells transfected with BCL2 assessed as mislocalization of AURKB at the spindle zone in anaphase cells at 40 nM measured after 6 hrs by immunofluorescence staining based analysis; format: cell-based
# [17] = molecular target: Aurora kinase B (Homo sapiens) (UniProt Q96GD4); assay: Inhibition of Aurora kinase B (unknown origin)
# [18] = molecular target: Aurora kinase B (Homo sapiens) (UniProt Q96GD4); assay: Inhibition of Aurora kinase B in human RPE-MYC cells transfected with BCL2 assessed as inhibition of histone H3 phosphorylation at Ser10 residue at highest concentration measured after 6 hrs by immunofluorescence staining based analysis; format: cell-based
# [19] = molecular target: Aurora kinase B (Homo sapiens) (UniProt Q96GD4); assay: Inhibition of Aurora kinase B in human RPE-MYC cells transfected with BCL2 assessed as inhibition of histone H3 phosphorylation at Ser10 residue at 40 nM measured after 6 hrs by immunofluorescence staining based analysis; format: cell-based
# [20] = molecular target: Aurora kinase B (Homo sapiens) (UniProt Q96GD4); assay: Disruption of AURKB localization in human RPE-MYC cells transfected with BCL2 assessed as localization of PLK1 at mitotic centrosomes at 40 nM measured after 6 hrs by immunofluorescence staining based analysis; format: cell-based
# Mus musculus [21] = assay: Induction of apoptosis in BALB/c mouse xenografted with human NCI-H23 cells assessed as increase in caspase-3 activation in tumor at 50 mg/kg, po bid for 7 days by immunohistochemical staining based analysis; format: functional, organism-based; conditions: time 7.0 day
# [22] = molecular target: Aurora kinase B (Homo sapiens) (UniProt Q96GD4); assay: Disruption of AURKB localization in human RPE-MYC cells transfected with BCL2 assessed as loss of localization of microtubules at the spindle-midzone at 40 nM measured after 6 hrs by immunofluorescence staining based analysis; format: cell-based
# Mus musculus [23] = assay: Induction of mitotic arrest in BALB/c mouse xenografted with human NCI-H23 cells assessed as increase in mitotic index in tumor at 50 mg/kg, po bid for 7 days by immunohistochemical staining based analysis; format: functional, organism-based; conditions: time 7.0 day
# [24] = Dose normalized AUC (0 to 6 hrs) in BALB/c mouse at 50 mg/kg, po compound formulated in PEG300 and administered as single dose by LC-MS/MS analysis; format: ADME, organism-based; conditions: in vivo
# [25] = molecular target: Aurora kinase B (Homo sapiens) (UniProt Q96GD4); assay: Inhibition of Aurora kinase B in human RPE-MYC cells transfected with BCL2 assessed as inhibition of histone H3 phosphorylation at Ser10 residue by immunofluorescence staining based analysis; format: cell-based
# [26] = molecular target: T1, Aurora kinase A (Homo sapiens); assay: Inhibition of Aurora kinase A in human RPE-MYC cells transfected with BCL2 assessed as inhibition of protein autophosphorylation at Thr288 residue by immunofluorescence staining based analysis; format: cell-based
# Sequence of Aurora kinase B (Homo sapiens) (Q96GD4 whole entry): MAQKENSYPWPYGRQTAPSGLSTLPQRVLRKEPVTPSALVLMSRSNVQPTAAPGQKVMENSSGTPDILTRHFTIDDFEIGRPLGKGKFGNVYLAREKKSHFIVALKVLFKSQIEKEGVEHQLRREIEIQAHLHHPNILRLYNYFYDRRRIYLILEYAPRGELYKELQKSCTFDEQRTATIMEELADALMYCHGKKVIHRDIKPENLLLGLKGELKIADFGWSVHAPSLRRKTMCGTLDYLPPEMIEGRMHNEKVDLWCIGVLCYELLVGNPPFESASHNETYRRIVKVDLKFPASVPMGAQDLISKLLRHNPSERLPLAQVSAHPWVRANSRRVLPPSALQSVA
structure (smiles),measurement,setting,value
COc1cc(OC)cc(Oc2ncccc2-c2ccnc(C)n2)c1,MEC,[1],1.29 µM
COc1cc(OC)cc(Oc2ncccc2-c2ccnc(N)n2)c1,MEC,[1],0.37 µM
CNC(=O)c1cc(OC)cc(Oc2ncccc2-c2ccnc(OC)c2)c1,Activity,[2],Active
same,Activity,[3],Active
same,Activity,[4],Active
same,inhibition,[5],inactive
same,Activity,[6],Active
same,MEC,[1],0.03 µM
COc1cc(Oc2ncccc2-c2ccncc2)cc(-c2nc(C)no2)c1,MEC,[1],0.42 µM
COc1cc(OC)cc(Oc2ncccc2-c2ccncc2)c1,MEC,[1],0.14 µM
COc1cc(OC)cc(Oc2ncccc2-c2cccc(N)n2)c1,MEC,[1],0.96 µM
COc1cc(OC)cc(Oc2ncccc2-c2ccnc(N)c2)c1,MEC,[1],0.28 µM
COc1cc(OC)cc(Oc2ncccc2-c2ccccc2)c1,MEC,[1],2.08 µM
COc1ccc(Oc2ncccc2-c2ccnc(N)n2)cc1,MEC,[1],> 20 µM
CNC(=O)c1cc(Oc2ncccc2-c2ccnc(OC)c2)cc(OC(F)(F)F)c1,inhibition,[7],inactive
same,Activity,NCI-H23 [8],Active
same,Cmax,[9],6.9 µM
same,Activity,[10],Active
same,Activity,[11],inactive
same,Activity,[12],inactive
same,Activity,[13],Active
same,inhibition,[14],Active
same,Activity,NCI-H23 [15],Active
same,Activity,[16],Active
same,inhibition,[17],inactive
same,inhibition,[18],< 68%
same,inhibition,[19],Active
same,Activity,[20],inactive
same,inhibition,[5],Active
same,Activity,Mus musculus [21],Active
same,Activity,[22],Active
same,MEC,[1],0.02 µM
same,Activity,Mus musculus [23],Active
same,AUC/dose,[24],0.35 µM·h/mg/kg
CNC(=O)c1cc(OC)cc(Oc2ncccc2-c2ccnc(C)c2)c1,MEC,[1],0.12 µM
COc1cc(OC)cc(Oc2ncccc2-c2ccnc(OC)c2)c1,inhibition,[25],inactive
same,inhibition,[26],inactive
same,MEC,[1],0.07 µM
COC(=O)c1cc(OC)cc(Oc2ncccc2-c2ccnc(N)n2)c1,MEC,[1],0.03 µM
Nc1ccc(Oc2ncccc2-c2ccnc(N)n2)cc1,MEC,[1],5 µM
COc1cc(NC(C)=O)cc(Oc2ncccc2-c2ccnc(C)c2)c1,Activity,[2],Active
same,Activity,[3],Active
same,Activity,[4],Active
same,inhibition,[5],inactive
same,Activity,[6],Active
same,MEC,[1],0.07 µM
COc1cc(Oc2ncccc2-c2ccncc2)cc(C(=O)N(C)C)c1,MEC,[1],2.08 µM

# — ChEMBL document CHEMBL5385867, “2-Phenoxy-3, 4'-bipyridine derivatives inhibit AURKB-dependent mitotic processes by disrupting its localization” (Eur J Med Chem, 2023)
